“And” between values parts separate entries of the source, which are not always exact repeats. Equal entries are not always repeated. Toxic doses and inconclusive results are not listed. The calls were made as follows: active = survival T/C of 150% or more; inactive = T/C below 125% in these data.
Tested on: B6C3F1 mice, intracerebral ependymoblastoma, median survival T/C
Test: NCI In Vivo Anticancer Drug Screen. Data for tumor model Ependymoblastoma (intracerebral) in B6C3F1 mice
Conditions: endpoint: median survival time, higher = longer survival
Description: The antitumor activity of compounds was measured in mice bearing transplantable tumors. Survival or tumor size were measured and the results are expressed as the measurement made in the treated group (T) divided by the measurement made in the vehicle treated control group (C). The tumor model used in this assay is Ependymoblastoma (intracerebral) in B6C3F1 mice

[1] = dose: 2.0 mg/kg/injection, schedule: Q01DX005 (ip), vehicle: saline
[2] = dose: 4.0 mg/kg/injection, schedule: Q01DX005 (ip), vehicle: saline
[3] = dose: 8.0 mg/kg/injection, schedule: Q01DX005 (ip), vehicle: saline
[4] = dose: 16.0 mg/kg/injection, schedule: Q01DX005 (ip), vehicle: saline
[5] = dose: 32.0 mg/kg/injection, schedule: Q01DX005 (ip), vehicle: saline

Measured: T/C

CC1CCC(NC(=O)N(CCCl)N=O)CC1 (stereo not drawn)
inactive: dose: 0.5 mg/kg/injection, schedule: Q01DX009 (ip), vehicle: Klucel (hydroxypropylcellulose) (HPC) 108 % of control | dose: 1.0 mg/kg/injection, schedule: Q01DX005 (ip), vehicle: other 110 % of control | dose: 1.0 mg/kg/injection, schedule: Q01DX009 (ip), vehicle: Klucel (hydroxypropylcellulose) (HPC) 106 % of control | [1] 102 % of control | dose: 2.0 mg/kg/injection, schedule: Q01DX009 (ip), vehicle: Klucel (hydroxypropylcellulose) (HPC) 112 % of control | dose: 4.0 mg/kg/injection, schedule: Q01DX005 (ip), vehicle: other 119 % of control | [2] 108 % of control | dose: 6.25 mg/kg/injection, schedule: Q01DX001 (ip), vehicle: saline + alcohol 118 % of control | dose: 8.3 mg/kg/injection, schedule: Q01DX001 (ip), vehicle: DMSO 104 % of control | dose: 13.8 mg/kg/injection, schedule: Q01DX001 (ip), vehicle: DMSO 108 % of control | dose: 16.0 mg/kg/injection, schedule: Q01DX001 (ip), vehicle: other 124 % of control | dose: 23.0 mg/kg/injection, schedule: Q01DX001 (ip), vehicle: DMSO 122 % of control | dose: 38.4 mg/kg/injection, schedule: Q01DX001 (ip), vehicle: DMSO 112 % of control | dose: 64.0 mg/kg/injection, schedule: Q01DX001 (ip), vehicle: DMSO 118 % of control
active: dose: 2.0 mg/kg/injection, schedule: Q01DX005 (ip), vehicle: other 160 % of control | dose: 8.0 mg/kg/injection, schedule: Q01DX005 (ip), vehicle: other 160 % of control | dose: 16.0 mg/kg/injection, schedule: Q01DX005 (ip), vehicle: other 300 % of control | dose: 25.0 mg/kg/injection, schedule: Q01DX001 (ip), vehicle: saline + alcohol 182 % of control | dose: 50.0 mg/kg/injection, schedule: Q01DX001 (ip), vehicle: saline + alcohol 235 % of control | dose: 64.0 mg/kg/injection, schedule: Q01DX001 (ip), vehicle: other 191 % of control | dose: 128.0 mg/kg/injection, schedule: Q01DX001 (ip), vehicle: other 204 % of control

CCC1=C(c2ccc(OC)cc2)CCC(C(=O)O)C1C (stereo not drawn)
inactive: [2] 102 % of control | [3] 102 % of control | [4] 102 % of control | [5] 103 % of control

Nc1ncnc2nc[nH]c12
inactive: dose: 4.0 mg/kg/injection, schedule: Q01DX005 (ip), vehicle: saline with Tween-80 106 % of control and 113 % of control | dose: 8.0 mg/kg/injection, schedule: Q01DX005 (ip), vehicle: saline with Tween-80 100 % of control and 114 % of control | dose: 16.0 mg/kg/injection, schedule: Q01DX005 (ip), vehicle: saline with Tween-80 107 % of control and 118 % of control | dose: 32.0 mg/kg/injection, schedule: Q01DX005 (ip), vehicle: saline with Tween-80 101 % of control and 102 % of control | dose: 64.0 mg/kg/injection, schedule: Q01DX005 (ip), vehicle: Klucel (hydroxypropylcellulose) (HPC) 108 % of control | dose: 64.0 mg/kg/injection, schedule: Q01DX005 (ip), vehicle: saline with Tween-80 100 % of control and 117 % of control | dose: 128.0 mg/kg/injection, schedule: Q01DX005 (ip), vehicle: Klucel (hydroxypropylcellulose) (HPC) 107 % of control | dose: 256.0 mg/kg/injection, schedule: Q01DX005 (ip), vehicle: Klucel (hydroxypropylcellulose) (HPC) 96 % of control

CC1(C)OC2C(COC(=O)c3ccc([N+](=O)[O-])cc3)OC(NC(=O)N(CCCl)N=O)C2O1 (stereo not drawn)
active: dose: 10.0 mg/kg/injection, schedule: Q01DX009 (ip), vehicle: saline 207 % of control | dose: 12.5 mg/kg/injection, schedule: Q01DX009 (ip), vehicle: saline with Tween-80 195 % of control | dose: 25.0 mg/kg/injection, schedule: Q01DX009 (ip), vehicle: saline with Tween-80 248 % of control
inactive: dose: 5.0 mg/kg/injection, schedule: Q01DX009 (ip), vehicle: saline 100 % of control

CN(N=O)C(N)=O
inactive: dose: 0.5 mg/kg/injection, schedule: Q01DX005 (ip), vehicle: saline + alcohol 98 % of control and 101 % of control and 107 % of control | dose: 2.0 mg/kg/injection, schedule: Q#A X002 (ip), vehicle: saline + alcohol 115 % of control | dose: 4.0 mg/kg/injection, schedule: Q01DX001 (ip), vehicle: saline + alcohol 118 % of control and 120 % of control | dose: 4.0 mg/kg/injection, schedule: Q#A X002 (ip), vehicle: saline + alcohol 113 % of control | dose: 8.0 mg/kg/injection, schedule: Q01DX001 (ip), vehicle: saline + alcohol 121 % of control | dose: 16.0 mg/kg/injection, schedule: Q01DX001 (oral), vehicle: saline + alcohol 123 % of control | dose: 16.0 mg/kg/injection, schedule: Q01DX005 (ip), vehicle: Klucel (hydroxypropylcellulose) (HPC) 118 % of control | dose: 32.0 mg/kg/injection, schedule: Q01DX001 (ip), vehicle: saline + alcohol 116 % of control | dose: 32.0 mg/kg/injection, schedule: Q01DX001 (oral), vehicle: saline + alcohol 118 % of control | dose: 32.0 mg/kg/injection, schedule: Q01DX005 (oral), vehicle: saline + alcohol 94 % of control | dose: 40.0 mg/kg/injection, schedule: Q01DX001 (ip), vehicle: saline 122 % of control | dose: 64.0 mg/kg/injection, schedule: Q01DX001 (oral), vehicle: saline + alcohol 111 % of control | dose: 128.0 mg/kg/injection, schedule: Q01DX001 (oral), vehicle: saline + alcohol 107 % of control and 121 % of control | dose: 256.0 mg/kg/injection, schedule: Q01DX001 (oral), vehicle: saline + alcohol 112 % of control
active: dose: 1.56 mg/kg/injection, schedule: Q01DX009 (ip), vehicle: saline 161 % of control | dose: 3.12 mg/kg/injection, schedule: Q01DX009 (ip), vehicle: saline 161 % of control | dose: 4.0 mg/kg/injection, schedule: Q01DX005 (oral), vehicle: saline + alcohol 150 % of control | dose: 4.0 mg/kg/injection, schedule: Q## X006 (ip), vehicle: saline + alcohol 156 % of control | dose: 6.25 mg/kg/injection, schedule: Q01DX009 (ip), vehicle: saline 164 % of control | dose: 8.0 mg/kg/injection, schedule: Q## X004 (ip), vehicle: saline + alcohol 150 % of control | dose: 8.0 mg/kg/injection, schedule: Q## X006 (ip), vehicle: saline + alcohol 156 % of control | dose: 10.0 mg/kg/injection, schedule: Q01DX001 (ip), vehicle: saline + alcohol 157 % of control | dose: 16.0 mg/kg/injection, schedule: Q01DX005 (oral), vehicle: saline + alcohol 150 % of control | dose: 16.0 mg/kg/injection, schedule: Q## X006 (ip), vehicle: saline + alcohol 162 % of control | dose: 20.0 mg/kg/injection, schedule: Q01DX001 (ip), vehicle: saline + alcohol 157 % of control | dose: 32.0 mg/kg/injection, schedule: Q## X004 (ip), vehicle: saline + alcohol 178 % of control | dose: 40.0 mg/kg/injection, schedule: Q01DX001 (ip), vehicle: saline + alcohol 161 % of control | dose: 80.0 mg/kg/injection, schedule: Q01DX001 (ip), vehicle: saline + alcohol 183 % of control

N[C@H](C(=O)O)[C@@H]1CC(Cl)=NO1
inactive: dose: 1.0 mg/kg/injection, schedule: Q01DX005 (ip), vehicle: saline + Tween-80 + alcohol 112 % of control | dose: 2.0 mg/kg/injection, schedule: Q01DX005 (ip), vehicle: saline + Tween-80 + alcohol 106 % of control | [1] 97 % of control and 111 % of control | dose: 4.0 mg/kg/injection, schedule: Q01DX005 (ip), vehicle: saline + Tween-80 + alcohol 114 % of control | [2] 104 % of control and 121 % of control | dose: 8.0 mg/kg/injection, schedule: Q01DX005 (ip), vehicle: saline + Tween-80 + alcohol 118 % of control | [3] 111 % of control and 117 % of control | dose: 16.0 mg/kg/injection, schedule: Q01DX005 (ip), vehicle: saline + Tween-80 + alcohol 89 % of control | [4] 109 % of control and 124 % of control | [5] 111 % of control

COc1nc(C(Cl)(Cl)Cl)c(Cl)c(OC)c1Cl
inactive: dose: 25.0 mg/kg/injection, schedule: Q01DX005 (ip), vehicle: Klucel (hydroxypropylcellulose) (HPC) 94 % of control | dose: 50.0 mg/kg/injection, schedule: Q01DX005 (ip), vehicle: Klucel (hydroxypropylcellulose) (HPC) 107 % of control | dose: 100.0 mg/kg/injection, schedule: Q01DX005 (ip), vehicle: Klucel (hydroxypropylcellulose) (HPC) 114 % of control

[N-]=[N+]=CC(=O)CCC(N)C(=O)O (stereo not drawn)
inactive: dose: 0.05 mg/kg/injection, schedule: Q01DX005 (ip), vehicle: saline 111 % of control | dose: 0.06 mg/kg/injection, schedule: Q01DX005 (ip), vehicle: saline 93 % of control and 117 % of control | dose: 0.1 mg/kg/injection, schedule: Q01DX005 (ip), vehicle: saline 97 % of control | dose: 0.12 mg/kg/injection, schedule: Q01DX005 (ip), vehicle: saline 111 % of control and 114 % of control | dose: 0.2 mg/kg/injection, schedule: Q01DX005 (ip), vehicle: saline 122 % of control
